Measured values published in patent US6541978B1, “Method, system and device for producing signals from a substance biological and/or chemical activity” (priority 1998, dated 2003).
Values joined by “and” are separate entries in the source; they are usually repeats but may differ in a detail not shown here. Equal values may be shown once.

Assays:
skin of a guinea-pig = test: Guinea-pig cutaneous test (Evans blue marks); assay type: in vivo; details: 0.1 ml ponderal solution at 10^−6M injected under the skin; single injections
Text: As an example, with reference to FIG. 4, a presentation is given below of the test known under the name of guinea-pig cutaneous test and described in chapter 11 (p.346-351) in the second edition of “Immunology” edited by Jean-Francois Bach, coll. John Wiley & Sons; or further in the 3rd edition of “The handbook of Experimental Immunology” edited by D. M. Weir, coll. Blackwell, Ch. 21 “Passive cutaneous anaphylaxis (PCA)” by W. E. Brocklehurst; or further in the work edited by Williams & Chase entitled “Methods in IMMUNOLOGY and IMMUNOCHEMISTRY”—Vol. 5—Ch. 19 “Anaphylaxis”.
The guinea-pig is used when still alive, and is given a n intravenous injection of a blue colorant (Evans blue—Sigma E 2129) which fixes on the blood albumin.
The test is carried out by injecting under the skin of the animal prepared in this way, 0.1 ml of the solution whose activity is to be controlled. Nextone measures the diameter of the blue marks appearing around the points of injection. In order to do this the skin is scanned, and then the bitmap image file is recorded. Finally the sizes of the blue marks due to the reaction are evaluated.
In the example described, a control was carried out of the presence of signals characteristic of the biological activity of the acetylcholine neuromediator (ACh; Sigma A2661) in solution in a physiological solution, by analysing the effects o n the skin of a guinea-pig: […]

[1] = tested on: isolated guinea-pig heart; test: Perfused isolated guinea-pig heart (Langendorff), injections of the substances; details: injection of substance 10^−6M
Text: As an example of a biological control system, an d referring to FIG. 2, a test will be described below derived from that known under the test name of a perfused isolated guinea-pig heart (or Langendorff experiment) and whose process is described in the work entitled: “Methods in Immunology and Immunochemistry” published by Williams and Chase, Academic Press 1976, particularly page 68; or further in the work entitled: “L'experimentation animate en cardiologie” INSERM Médecine-Science—Coll. Flammarion—Author Bernard […]—particularly Ch. 3.1 p.81 “Organe Isolé—Coceur Isolé selon Langendorff—Montage à pression coronaire constante”; or further in the work entitled “The isolated perfused Heart according to Langendorff” H. J. Döiring, H. Dehnart—Biomesstechnik—Verlag March GmbH, D-7806 March. In FIG. 2 one recognises the diagram known from the Langendorff experiment. The equipment described in these works has been completed by a transducer in the form of a bobbin 60 of a varnished copper wire of diameter 0.5 mm, with a diameter of 110 mm, a length of 40 mm and with an impedance of 4 ohms.
The fraction collector collected the tubes making it possible to measure the debit of the guinea-pig heart at the rate of 1 tube per minute. The buffer solution crossing the heart had the following composition: CaCl 2 mM, NaHCO3 25 mM, NaCl 118 mM, MgSO4 1.2 mM, KHPO4 1.2 mM, Glucose 11 mM, Pyruvate 2 mM.

In the case of CC(=O)OCC[N+](C)(C)C [ACh, acetylcholine], the “Dia. in mm (diameter of the blue marks around the points of injection)” value (skin of a guinea-pig) is reported as 23 mm and 25 mm and 21 mm and 18 mm.

For Cn1c(=O)c2c(ncn2C)n(C)c1=O [caffeine], the “quantity of the buffer solution recuperated in the collector tubes” value (“quantity” below) ([1]; time 1 min) was 5.1 mL, the “quantity” value ([1]; time 2 min) was 5.0 mL and the “quantity” value ([1]; time 3 min) was 5.0 mL. The “quantity” value ([1]; time 4 min) was 4.9 mL, the “quantity” value ([1]; time 5 min) was 4.6 mL and the “quantity” value ([1]; time 6 min) was 4.2 mL. The “quantity” value ([1]; time 7 min) was 4.0 mL, the “quantity” value ([1]; time 8 min) was 4.1 mL and the “quantity” value ([1]; time 9 min) was 4.0 mL. For the same compound, the “quantity” value ([1]; time 10 min) was 4.2 mL, the “quantity” value ([1]; time 11 min) was 4.1 mL and the “quantity” value ([1]; time 12 min) was 4.3 mL. For the same compound, the “quantity” value ([1]; time 13 min) was 4.4 mL, the “quantity” value ([1]; time 14 min) was 4.5 mL and the “quantity” value ([1]; time 15 min) was 4.5 mL. For the same compound, the “quantity” value ([1]; time 20 min) was 4.6 mL, the “quantity” value ([1]; time 25 min) was 4.5 mL and the “quantity” value ([1]; time 30 min) was 4.5 mL.

For CNc1ccc2oc(C[C@H]3O[C@@]4(CC[C@H]3C)O[C@H]([C@H](C)C(=O)c3ccc[nH]3)[C@H](C)C[C@H]4C)nc2c1C(=O)O [ionophoretic-calcium, ionophoretic-calcium A 23187], the “quantity” value ([1]; time 1 min) was 5.1 mL, the “quantity” value ([1]; time 2 min) was 5.0 mL and the “quantity” value ([1]; time 3 min) was 5.2 mL. For the same compound, the “quantity” value ([1]; time 4 min) was 5.0 mL, the “quantity” value ([1]; time 5 min) was 4.9 mL and the “quantity” value ([1]; time 6 min) was 5.4 mL. The “quantity” value ([1]; time 7 min) was 5.6 mL, the “quantity” value ([1]; time 8 min) was 6.2 mL and the “quantity” value ([1]; time 9 min) was 6.4 mL. For the same compound, the “quantity” value ([1]; time 10 min) was 6.4 mL, the “quantity” value ([1]; time 11 min) was 6.2 mL and the “quantity” value ([1]; time 12 min) was 6.0 mL. The “quantity” value ([1]; time 13 min) was 6.0 mL, the “quantity” value ([1]; time 14 min) was 5.9 mL and the “quantity” value ([1]; time 15 min) was 6.0 mL. For the same compound, the “quantity” value ([1]; time 20 min) was 5.7 mL, the “quantity” value ([1]; time 25 min) was 5.4 mL and the “quantity” value ([1]; time 30 min) was 5.2 mL.
